These results are taken from patent EP4790063A1, “PEPTIDE HAVING ACTIVITY FOR […] OF MARINE FOULING” (National University Corporation Hokkaido University, priority 2023, dated 2025).

Read-outs that look alike come from different tables or passages of the source. Non-standard residues stand in square brackets, D forms with d. Residues, ends and D or L forms follow the SMILES beside them. ξ: configuration not given here. *: point of attachment. d(β3hL) = CC(C)C[C@@H](N)CC(=O)O; hPhe = N[C@@H](CCc1ccccc1)C(=O)O; ξβ3hL = CC(C)CC(N)CC(=O)O; Boc = CC(C)(C)OC(=O)*; ξβ3hA = CC(N)CC(=O)O; OBn = c1ccc(CO*)cc1; GABA = NCCCC(=O)O; βAla = NCCC(=O)O

Series [1] has as its system juvenile shellfish of Mediterranean mussel. The protocol: The sample was dissolved in ethanol to adjust to a concentration of 1 mg/mL. Thirty and 100 µL (30 and 100 µg) of the sample solutions were mixed with the solvent, and the mixtures were brought to a total volume of 500 µL. These mixtures were spread on the bottom surface of the glass beaker of the test container, and the solvent was volatilized by shaking them overnight.
A volume of 10 mL of the test seawater was added to the glass beakers of the test containers. The tests were initiated by introducing twelve test individuals into the test seawater in each beaker. The tests ended after three days, and the observation was conducted.
In Table 2, the terms "bottom surface-adhered individuals" and "wall surface-adhered individuals" refer to individuals that are adhered to the bottom surface and wall surface of the beaker, respectively; the term "bottom surface-crawling individuals" refers to individuals that move along the bottom surface without adhering; the term "overturned individuals or closed shell individuals (unadhered)" refers to individuals that are either overturned or in a closed shell without adhering to the bottom surface; and the term "number of byssal threads on the bottom surface" refers to the number of foot threads that are fixed to the bottom surface. In particular, the greater the reduction in the number of byssal threads, the stronger the effect of adhesion prevention.

In series [2] the test system is cypris larvae of Striped Barnacle.
Procedure: (§1) After solutions of about 2 mL of the test compounds (tripeptides 2 to 10 and dipeptide 11) in ethanol were dispensed into each well of the 24-well polystyrene multi-well plate (3.2 mL/well, well diameter 15.5 mm, well height 17.6 mm, manufactured by Corning), the multi-well plate was air-dried to evaporate the ethanol.
(§2) The test compounds were aliquoted to achieve final concentrations of 0.03, 0.1, 0.3, 1, 3, and 10 µg/mL.
(§3) Subsequently, six individuals of the cypris larvae of Striped Barnacle (hereinafter simply referred to as "barnacle larvae") were transplanted into each well along with 2 mL of pre-filtered natural seawater. The multi-well plate was left standing in an incubator at 25°C, and the barnacle larvae were allowed to grow for two days at 25°C.
In the above procedure, a test for the control group was conducted by dispensing an ethanol solution without any test compound. […]
Forty-eight hours after the test started, the number of adhered individuals and the number of dead individuals of the barnacle larvae in each well were counted under a stereomicroscope. The adhesion rate (%) and mortality rate (%) of the barnacle larvae in each well were calculated, respectively. […]
The test system is the same in series [3]. Briefly: Evaluation of antifouling activities and toxicity against the cypris larvae of Striped Barnacle (24-well plate, adhesion and mortality after 48 h). Format: in vivo, Amphibalanus amphitrite.
Procedure: as §1, §2, §3
In the above procedure, a test for the control group was conducted by dispensing an ethanol solution without any test compound. The natural seawater used in the above test was prepared by diluting the natural seawater collected from the coastal area near Onjuku, Chiba Prefecture (salt concentration: 36 g/kg) with distilled water to adjust a salt concentration of 32 g/kg.
In the test group, the control group, and the comparison group, the tests were conducted in four times (four wells) for one concentration of each test compounds.
Forty-eight hours after the test started, the number of adhered individuals and the number of dead individuals of the barnacle larvae in each well were counted under a stereomicroscope. The adhesion rate (%) and mortality rate (%) of the barnacle larvae in each well were calculated, respectively. […] Similarly, for each test compound, a dose-mortality response curve was created to determine the half-maximal lethal concentration (48h LC50) that causes 50% mortality in the barnacle larvae. As a reference, the value of Boc-3 obtained from non-Patent literature 8 is also described.
In particular, the lower the settlement rate, the stronger the antifouling effect.
In series [4] the test system is juvenile shellfish of Mediterranean mussel. Kind of series: Evaluation of the antifouling activity and toxicity against the juvenile shellfish of Mediterranean mussel (coated glass beaker, 3 days). Format: in vivo, Mytilus galloprovincialis. The conditions noted are these: for bottom surface-adhered individuals % / bottom surface-crawling individuals % / overturned individuals or closed shell individuals (unadhered) % / wall surface-adhered individuals % / number of byssal threads on the bottom surface / bottom surface-adhered individuals No. / bottom surface-crawling individuals No. / overturned individuals or closed shell individuals (unadhered) No. / wall surface-adhered individuals No.: three days; for bottom surface-adhered individuals No. / bottom surface-crawling individuals No. / overturned individuals or closed shell individuals (unadhered) No. / wall surface-adhered individuals No.: twelve individuals; for antifouling effect (overall determination in words): juvenile Mediterranean mussel, 3.0 µg/mL and 10 µg/mL.
Procedure: The sample was dissolved in ethanol to adjust to a concentration of 1 mg/mL. Thirty and 100 µL (30 and 100 µg) of the sample solutions were mixed with the solvent, and the mixtures were brought to a total volume of 500 µL. These mixtures were spread on the bottom surface of the glass beaker of the test container, and the solvent was volatilized by shaking them overnight. As a result, the samples to be evaluated were coated only on the bottom surface of the glass beaker.

Setting [5] is: 3 µg/mL (30 µg), twelve individuals, three days.
Where [6] appears, read: Test Example 1, concentration that prevents adhesion of barnacle larvae by 50%, 48 h, 25°C, tested 0.03-10 µg/mL.
[7] abbreviates: Test Example 3, same manner as Test Example 1.
[8] abbreviates: Table 4 summary of results from Test Examples 1 to 3 (rounded).
The mark [9] stands for this setting: Test Example 1, concentration causing 50% mortality in barnacle larvae, 48 h, 25°C, tested 0.03-10 µg/mL.
Where [10] appears, read: 3 µg/mL (30 µg), control group 118.

`O=S(=O)([O-])[O-].[Cu+2]` [Copper sulfate]: in series [1] (3 µg/mL (30 µg), three days), the “bottom surface-adhered individuals %” value is 0.0%, the “bottom surface-crawling individuals %” value is recorded as 0.0%, the “overturned individuals or closed shell individuals (unadhered) %” value was 100.0% and the “wall surface-adhered individuals %” value is 0.0%. The “number of byssal threads on the bottom surface” value (from here on “number of byssal threads”) in series [1] (3 µg/mL (30 µg), three days, control group 118) turned out to be 2. Besides, in series [1] (setting [5]), the “bottom surface-adhered individuals No.” value came out at 0, the “bottom surface-crawling individuals No.” value is 0, the “overturned individuals or closed shell individuals (unadhered) No.” value is reported as 12 and the “wall surface-adhered individuals No.” value is 0. In series [1] (juvenile Mediterranean mussel, 3.0 µg/mL and 10 µg/mL), the “antifouling effect (overall determination in words)” value (“antifouling effect” for short) was “high”. Also, the “Antifouling activity 48h EC50” value in series [2] (setting [6]) is 0.41 µg/mL. Further, the “Antifouling activity 48h EC50” value in series [2] (setting [7]) was found to be 0.3 µg/mL.

On to `CC(C)C(NC(=O)[C@@H]1CCCN1C(=O)OC(C)(C)C)C(C)C(=O)OCc1ccccc1` (stereo partly drawn) [dipeptide 11], for which the “Antifouling activity 48h EC50” value in series [3] (setting [8]) amounted to 2.4 µg/mL; in series [3] (setting [6]), 2.39 µg/mL. Further, in series [3] (setting [9]), the “Toxicity 48h LC50” value is reported as greater than 10 µg/mL.

Turning to `CC(C)(C)OC(=O)N1CCC[C@H]1C(=O)Nc1ccccc1C(=O)OCc1ccccc1` [dipeptide 13, reference compound], the “Antifouling activity 48h EC50” value in series [3] (setting [8]) is listed as 0.8 µg/mL; in series [3] (setting [7]), 0.84 µg/mL. For the same compound, the “Toxicity 48h LC50” value in series [3] (setting [7]) is greater than 10 µg/mL.

For the compound `CC(C)(C)OC(=O)N1CCC[C@H]1C(=O)N[C@@H](CC(=O)OCc1ccccc1)c1ccccc1` [dipeptide 14], the “Antifouling activity 48h EC50” value in series [3] (setting [8]) is 3.2 µg/mL. In series [3] (setting [7]), the “Antifouling activity 48h EC50” value is reported as 3.18 µg/mL and the “Toxicity 48h LC50” value is greater than 10 µg/mL.

Take `CCOC(=O)[C@H](C)NC(=O)[C@@H]1CCCN1C(=O)[C@H](Cc1ccccc1)NC(=O)OC(C)(C)C` [tripeptide 2] (Boc-Phe-Pro-Ala-OEt): the “Antifouling activity 48h EC50” value in series [3] (setting [8]) and in series [3] (setting [6]) was greater than 10 µg/mL throughout. Moreover, the “Toxicity 48h LC50” value in series [3] (setting [9]) is reported as greater than 10 µg/mL.

In the case of `CCOC(=O)[C@H](CC(C)C)NC(=O)[C@@H]1CCCN1C(=O)[C@H](Cc1ccccc1)NC(=O)OC(C)(C)C` [tripeptide 3] (Boc-Phe-Pro-Leu-OEt), in series [3] (setting [8]), the “Antifouling activity 48h EC50” value was greater than 10 µg/mL.

On to `CCOC(=O)CCNC(=O)[C@@H]1CCCN1C(=O)[C@H](Cc1ccccc1)NC(=O)OC(C)(C)C` [tripeptide 4] (Boc-Phe-Pro-[βAla]-OEt), for which the “Antifouling activity 48h EC50” value in series [3] (setting [8]) and in series [3] (setting [6]) was greater than 10 µg/mL in each case. Besides, in series [3] (setting [9]), the “Toxicity 48h LC50” value is given as greater than 10 µg/mL.

`CCOC(=O)CCCNC(=O)[C@@H]1CCCN1C(=O)[C@H](Cc1ccccc1)NC(=O)OC(C)(C)C` [tripeptide 5] (Boc-Phe-Pro-[GABA]-OEt): the “Antifouling activity 48h EC50” value in series [3] (setting [8]) and in series [3] (setting [6]) was greater than 10 µg/mL throughout. In addition, the “Toxicity 48h LC50” value in series [3] (setting [9]) is given as greater than 10 µg/mL.

For the compound `CC(C)C(NC(=O)[C@@H]1CCCN1C(=O)[C@H](Cc1ccccc1)NC(=O)OC(C)(C)C)C(C)C(=O)OCc1ccccc1` (stereo partly drawn) [tripeptide 6], the “Antifouling activity 48h EC50” value in series [3] (setting [8]) is reported as 1.66 µg/mL; in series [3] (setting [6]), 1.63 µg/mL. The “Toxicity 48h LC50” value in series [3] (setting [9]) was greater than 10 µg/mL.

`CC(C)C(NC(=O)[C@@H]1CCCN1C(=O)[C@H](Cc1ccccc1)NC(=O)OC(C)(C)C)C(C)C(=O)O` (stereo partly drawn) [tripeptide 7]: the “Antifouling activity 48h EC50” value in series [3] (setting [8]) and in series [3] (setting [6]) was greater than 10 µg/mL in each case. Also, the “Toxicity 48h LC50” value in series [3] (setting [9]) is given as greater than 10 µg/mL.

On to `CC(C)CC(CC(=O)OCc1ccccc1)NC(=O)[C@@H]1CCCN1C(=O)[C@H](Cc1ccccc1)NC(=O)OC(C)(C)C` (stereo partly drawn) [tripeptide 8] (Boc-Phe-Pro-[ξβ3hL]-OBn), for which the “Antifouling activity 48h EC50” value in series [3] (setting [8]) amounted to 1.1 µg/mL. Besides, the “Toxicity 48h LC50” value in series [3] (setting [9]) is greater than 10 µg/mL. The “Antifouling activity 48h EC50” value in series [3] (setting [6]) was 1.13 µg/mL. In series [3] (cypris larvae of Striped Barnacle, within the tested concentration range), the “antifouling activity (in words)” value is on record as “effective”. In series [4] (3 µg/mL (30 µg)), the “bottom surface-adhered individuals %” value amounted to 16.7%, the “bottom surface-crawling individuals %” value came to 0.0%, the “overturned individuals or closed shell individuals (unadhered) %” value was determined as 58.3% and the “wall surface-adhered individuals %” value is given as 25.0%. In series [4] (3 µg/mL (30 µg)), the “bottom surface-adhered individuals No.” value came to 2, the “bottom surface-crawling individuals No.” value came out at 0, the “overturned individuals or closed shell individuals (unadhered) No.” value is 7 and the “wall surface-adhered individuals No.” value was 3. The “number of byssal threads” value in series [4] (setting [10]) was 25. In addition, in series [4] (10 µg/mL (100 µg)), the “bottom surface-adhered individuals %” value is given as 16.7%, the “bottom surface-crawling individuals %” value is recorded as 0.0%, the “number of byssal threads” value turned out to be 12 and the “overturned individuals or closed shell individuals (unadhered) %” value is listed as 83.3%. In series [4] (10 µg/mL (100 µg)), the “wall surface-adhered individuals %” value was determined as 0.0%, the “bottom surface-adhered individuals No.” value worked out at 2, the “bottom surface-crawling individuals No.” value is given as 0 and the “overturned individuals or closed shell individuals (unadhered) No.” value came to 10. Besides, the “wall surface-adhered individuals No.” value in series [4] (10 µg/mL (100 µg)) amounted to 0. Further, the “antifouling effect” value in series [4] was “exhibit an antifouling effect”. In series [4] (listed as compound 8), the “antifouling effect” value is “effective”.

As to `CC(CC(=O)OCc1ccccc1)NC(=O)[C@@H]1CCCN1C(=O)[C@H](Cc1ccccc1)NC(=O)OC(C)(C)C` (stereo partly drawn) [tripeptide 9] (Boc-Phe-Pro-[ξβ3hA]-OBn), in series [4] (3 µg/mL (30 µg)), the “bottom surface-adhered individuals %” value worked out at 75.0%, the “bottom surface-crawling individuals %” value is on record as 0.0%, the “overturned individuals or closed shell individuals (unadhered) %” value was 16.7% and the “wall surface-adhered individuals %” value amounted to 8.3%. In series [4] (3 µg/mL (30 µg)), the “bottom surface-adhered individuals No.” value is recorded as 9, the “bottom surface-crawling individuals No.” value worked out at 0, the “overturned individuals or closed shell individuals (unadhered) No.” value was 2 and the “wall surface-adhered individuals No.” value was found to be 1. Further, the “number of byssal threads” value in series [4] (setting [10]) worked out at 73. Further, in series [4] (10 µg/mL (100 µg)), the “bottom surface-adhered individuals %” value turned out to be 58.3%, the “bottom surface-crawling individuals %” value came to 0.0%, the “number of byssal threads” value is reported as 34 and the “overturned individuals or closed shell individuals (unadhered) %” value was found to be 33.3%. In series [4] (10 µg/mL (100 µg)), the “wall surface-adhered individuals %” value was 8.3%, the “bottom surface-adhered individuals No.” value is reported as 7, the “bottom surface-crawling individuals No.” value was determined as 0 and the “overturned individuals or closed shell individuals (unadhered) No.” value is recorded as 4. In addition, the “wall surface-adhered individuals No.” value in series [4] (10 µg/mL (100 µg)) is recorded as 1. The “antifouling effect” value in series [4] was “effective”.

With `CCOC(=O)CC(C)NC(=O)[C@@H]1CCCN1C(=O)[C@H](Cc1ccccc1)NC(=O)OC(C)(C)C` (stereo partly drawn) [tripeptide 10] (Boc-Phe-Pro-[ξβ3hA]-OEt), in series [4] (3 µg/mL (30 µg)), the “bottom surface-adhered individuals %” value worked out at 66.7%, the “bottom surface-crawling individuals %” value is on record as 0.0%, the “overturned individuals or closed shell individuals (unadhered) %” value came out at 8.3% and the “wall surface-adhered individuals %” value is listed as 25.0%. Besides, in series [4] (3 µg/mL (30 µg)), the “bottom surface-adhered individuals No.” value turned out to be 8, the “bottom surface-crawling individuals No.” value was determined as 0, the “overturned individuals or closed shell individuals (unadhered) No.” value worked out at 1 and the “wall surface-adhered individuals No.” value was 3. In series [4] (setting [10]), the “number of byssal threads” value was 80. Also, in series [4] (10 µg/mL (100 µg)), the “bottom surface-adhered individuals %” value is listed as 58.3%, the “bottom surface-crawling individuals %” value was found to be 0.0%, the “number of byssal threads” value worked out at 11.5 and the “overturned individuals or closed shell individuals (unadhered) %” value was 8.3%. In series [4] (10 µg/mL (100 µg)), the “wall surface-adhered individuals %” value is reported as 33.3%, the “bottom surface-adhered individuals No.” value worked out at 7, the “bottom surface-crawling individuals No.” value worked out at 0 and the “overturned individuals or closed shell individuals (unadhered) No.” value was determined as 1. For the same compound, in series [4] (10 µg/mL (100 µg)), the “wall surface-adhered individuals No.” value is recorded as 4. Further, the “antifouling effect” value in series [4] is “ineffective”.

In the case of `CC(C)C[C@H](CC(=O)OCc1ccccc1)NC(=O)[C@@H]1CCCN1C(=O)[C@H](CCc1ccccc1)NC(=O)OC(C)(C)C` [tripeptide 12] (Boc-[hPhe]-Pro-[d(β3hL)]-OBn), the “Antifouling activity 48h EC50” value in series [3] (setting [8]) is recorded as 0.5 µg/mL. For the same compound, in series [3] (setting [7]), the “Antifouling activity 48h EC50” value was 0.49 µg/mL and the “Toxicity 48h LC50” value was greater than 10 µg/mL.
